US11178870B2 (priority 2017, dated 2021)

Columns and labels:
Assay type in all cases: in vivo
Magnaporthe grisea = assay: whole plant or invertebrate; conditions: Pyricularia oryzae, in Oryza sativa, read-out: Test A control value
Botrytis cinerea = assay: Test Example B: Gray mold on tomato; conditions: Gray mold on tomato, read-out: Test B control value
Alternaia brassicicola = assay: Test Example C: Alternaria sooty spot on cabbage; conditions: Brassica oleracea; Alternaria sooty spot on cabbage; read-out: Test C control value
[1] = tested on: Blumeria graminis f. sp. hordei; assay: Test Example D: Powdery mildew on barley; conditions: Powdery mildew on barley, read-out: Test D control value
Puccinia recondita = assay: Test Example E: Brown rust on wheat; conditions: Brown rust on wheat, read-out: Test E control value
Phytophthora infestans = assay: whole plant or invertebrate; conditions: in Solanum lycopersicum, read-out: Test F control value
Plasmopara viticola = assay: Test Example G: Downy mildew on vine; conditions: Downy mildew on vine, 250 ppm sprayed, 2.5 ml/pot, 7 to 10 days after inoculation, read-out: Test G control value

Row | SMILES | pest or weed control at 250 µg/mL (Magnaporthe grisea) [%] | pest or weed control at 250 µg/mL (Botrytis cinerea) [%] | pest or weed control at 250 µg/mL (Alternaia brassicicola) [%] | pest or weed control at 250 µg/mL [1] [%] | pest or weed control at 250 µg/mL (Puccinia recondita) [%] | pest or weed control at 250 µg/mL (Phytophthora infestans) [%] | pest or weed control at 250 ppm (Plasmopara viticola) [%]
1 | CCN1C(=O)CCC(c2cccs2)=C1c1c(F)cccc1F [compound 2, 6-(2,6-difluorophenyl)-1-ethyl-5-(thiophen-2-yl)-3,4-dihydropyridin-2(1H)-one] | > 50 | < 50 | < 50 | > 50 | > 50 | < 50 | > 50
2 | CCn1c(-c2c(F)cccc2F)c(-c2cccs2)ccc1=O [compound 5, 6-(2,6-difluorophenyl)-1-ethyl-5-(thiophen-2-yl)pyridin-2(1H)-one] | > 50 | > 50 | > 50 | > 50 | > 50 | > 50 | > 50
3 | CCn1c(-c2c(F)cccc2F)c(-c2ccc(Cl)s2)ccc1=O [compound 6, 5-(5-chlorothiophen-2-yl)-6-(2,6-difluorophenyl)-1-ethylpyridin-2(1H)-one] | > 50 | > 50 | > 50 | < 50 | > 50 | < 50 | < 50
4 | CCn1c(-c2c(F)cccc2F)c(-c2ccc(Cl)s2)cc(Cl)c1=O [compound 7, 3-chloro-5-(5-chlorothiophen-2-yl)-6-(2,6-difluorophenyl)-1-ethylpyridin-2(1H)-one] | > 50 | > 50 | > 50 | < 50 | > 50 | < 50 | < 50
5 | CCn1c(-c2c(F)cc(F)cc2F)c(C2OCCCO2)cc(Cl)c1=O [compound 8, 3-chloro-5-(1,3-dioxan-2-yl)-1-ethyl-6-(2,4,6-trifluorophenyl)-pyridin-2(1H)-one] | > 50 | > 50 | > 50 | < 50 | < 50 | < 50 | > 50
6 | CCn1c(-c2c(F)cccc2F)c(-c2cccnc2Cl)ccc1=O [compound 17] | – | > 50 | – | > 50 | > 50 | – | –
7 | CCn1c(-c2c(F)cccc2F)c(-c2cccnc2Cl)cc(Cl)c1=O [compound 18] | > 50 | > 50 | > 50 | > 50 | > 50 | < 50 | < 50
8 | CCn1c(-c2c(F)cc(F)cc2F)c(-c2ccnn2C)cc(Cl)c1=O [compound 20, 3-chloro-1-ethyl-5-(1-methyl-1H-pyrazol-5-yl)-6-(2,4,6-trifluorophenyl)pyridin-2(1H)-one] | > 50 | > 50 | > 50 | > 50 | > 50 | < 50 | < 50
9 | CCn1c(-c2c(F)cc(F)cc2F)c(-c2c(Br)cnn2C)cc(Cl)c1=O [compound 21, 5-(4-bromo-1-methyl-1H-pyrazol-5-yl)-3-chloro-1-ethyl-6-(2,4,6-trifluorophenyl)pyridin-2(1H)-one] | > 50 | > 50 | > 50 | > 50 | > 50 | < 50 | > 50
10 | CCn1c(-c2c(F)cc(OC)cc2F)c(-c2c(Br)cnn2C)cc(Cl)c1=O [compound 23, 5-(4-bromo-1-methyl-1H-pyrazol-5-yl)-3-chloro-6-(2,6-difluoro-4-methoxyphenyl)-1-ethylpyridin-2(1H)-one] | > 50 | > 50 | > 50 | > 50 | > 50 | < 50 | < 50
